The text below walks through data of US11299485B2, “Thiophene derivative and use thereof” (FUJIMOTO CO., LTD., priority 2018, dated 2022).

Common to all, as to format: cell-based
Assay [1] has as its system Kasumi-7 cells. Description: Human acute lymphoblastic leukemia cell line Kasumi-7 proliferation suppression test. Conditions: 72 h, compound 10 μM, 3 days, WST-8, read-out: cell survival rate (% of control) Kasumi-7. The source says: Example 55: Human Acute Lymphoblastic Leukemia Cell Line Kasumi-7 Proliferation Suppression Test
Kasumi-7 cells (NIBIOHN, JCRB1401) were suspended in 20% fetal calf serum (Thermo Fisher Scientific, Inc.)-containing RPMI1640 medium (ATCC, hereinafter abbreviated as medium C), and diluted as appropriate with 0.4% trypan blue solution (Sigma-Aldrich Co. LLC.). The number of viable cells was counted with a hemocytometer (Funakoshi Co., Ltd.). A cell suspension obtained by diluting with medium C such that the value obtained was 1.3×10^5 cells/mL was dispensed into a Falcon 96 well flat bottom plate (Corning Incorporated) at 75 μL/well, and culture was started at 37° C. under 5% CO2 stream. The next day, a solution obtained by diluting 4 mM DMSO solution of the test compound 100-fold with medium C was added by 25 μL to each well (final concentration of test compound 10 μM). 25 μL of a solution obtained by diluting DMSO 100-fold with medium C was added to the control well. After culturing at 37° C. in a 5% CO2 stream for 3 days, the cell proliferation activity was measured according to the instruction manual attached to WST-8 Kit (KISHIDA CHEMICAL Co., Ltd.).

Assay [2] relates to Daudi cells. Description: Human Burkitt lymphoma cell line Daudi proliferation suppression test. Conditions: 72 h, compound 10 μM, 3 days, WST-8, read-out: cell survival rate (% of control) Daudi. The source says:
Example 54: Human Burkitt Lymphoma Cell Line Daudi Proliferation Suppression Test
(§1) Daudi cells (National Institutes of Biomedical Innovation, Health and Nutrition (NIBIOHN), JCRB9071) were suspended in medium B, and diluted as appropriate with 0.4% trypan blue solution (Sigma-Aldrich Co. LLC.). The number of viable cells was counted with a hemocytometer (ERMA INC.). A cell suspension obtained by diluting with medium B such that the value obtained was 1.3×10^5 cells/mL was dispensed into a Falcon 96 well flat bottom plate (Corning Incorporated) at 75 μL/well, and culture was started at 37° C. under 5% CO2 stream. The next day, a solution obtained by diluting 4 mM DMSO solution of the test compound 100-fold with medium B was added by 25 μL to each well (final concentration of test compound 10 μM). 25 μL of a solution obtained by diluting DMSO 100-fold with medium B was added to the control well. After culturing at 37° C. in a 5% CO2 stream for 3 days, the cell proliferation activity was measured according to the instruction manual attached to WST-8 Kit (KISHIDA CHEMICAL Co., Ltd.).
For orientation: Formazan colour is commonly taken as a measure of viable cells.

Assay [3] has as its system MM.1S cells. Kind of assay: Human myeloma cell line MM.1S proliferation suppression test. The note with it: MM1.S, 72 h, compound 10 μM, 3 days, WST-1 or WST-8, read-out: cell survival rate (% of control) MM.1S. The method, then:
Example 51: Human Myeloma Cell Line MM.1S Proliferation Suppression Test
MM.1S cells (ATCC, CRL-2974) were suspended in 10% fetal calf serum (Thermo Fisher Scientific)-containing RPMI1640 medium (ATCC, hereinafter abbreviated as medium B), and diluted as appropriate with 0.4% trypan blue solution (Sigma-Aldrich Co. LLC.). The number of viable cells was counted with a hemocytometer (ERMA INC.). It was diluted with medium B such that the value obtained was 2×10^5 cells/mL. On the other hand, 50 μL of a solution obtained by diluting 4 mM DMSO solution of the test compound 200-fold with medium B was added to each well of a Falcon 96-well flat bottom plate (Corning Incorporated), and the above-mentioned cell suspension was dispensed at 50 μL/well (final concentration of test compound 10 μM). 50 μL of a solution obtained by diluting DMSO 200-fold with medium B was added to the control well. After culturing at 37° C. in a 5% CO2 stream for 3 days, the cell proliferation activity was measured using WST-1 (DOJINDO LABORATORIES) or WST-8 Kit (KISHIDA CHEMICAL Co., Ltd.) and according to each instruction manual attached thereto.

Assay [4] has as its system REC-1 cells. Description: Human mantle cell lymphoma cell line REC-1 proliferation suppression test. The note with it: Rec1, 72 h, compound 10 μM, 3 days, WST-8, read-out: cell survival rate (% of control) REC-1. The protocol:
Example 53: Human Mantle Cell Lymphoma Cell Line REC-1 Proliferation Suppression Test
as §1, with “REC-1” for “Daudi”, “(ATCC, CRL-3004)” for “(National Institutes of Biomedical Innovation, Health and Nutrition (NIBIOHN), JCRB9071)”, “(Funakoshi Co., Ltd.).” for “(ERMA INC.).”

Assay [5] relates to Pfeiffer cells. Kind of assay: Human diffuse large B-cell lymphoma cell line Pfeiffer proliferation suppression test. The note with it: 144 h, compound 10 μM, 3 days + re-plating with compound 3 days, WST-8, read-out: cell survival rate (% of control) Pfeiffer. The source says:
Example 52: Human Diffuse Large B-Cell Lymphoma Cell Line Pfeiffer Proliferation Suppression Test
Pfeiffer cells (ATCC, CRL-2632) were suspended in medium B, and diluted as appropriate with 0.4% trypan blue solution (Sigma-Aldrich Co. LLC.). The number of viable cells was counted with a hemocytometer (Funakoshi Co., Ltd.). A cell suspension obtained by diluting with medium B such that the value obtained was 1.3×10^5 cells/mL was dispensed into a Falcon 96 well flat bottom plate (Corning Incorporated) at 75 μL/well, and culture was started at 37° C. under 5% CO2 stream. The next day, a solution obtained by diluting 4 mM DMSO solution of the test compound 100-fold with medium B was added by 25 μL to each well (final concentration of test compound 10 μM). 25 μL of a solution obtained by diluting DMSO 100-fold with medium B was added to the control well. After culturing at 37° C. in a 5% CO2 stream for 3 days, the cell culture medium was uniformly suspended with a multi channel pipette, 14 μL per well was transferred into another new Falcon 96 well flat bottom plate. A solution obtained by diluting 4 mM DMSO solution of the same test compound as the first time 400-fold with medium B was added by 86 μL to a total amount of 100 μL (final concentration of test compound 10 μM). After culturing at 37° C. in a 5% CO2 stream for 3 days, the cell proliferation activity was measured according to the instruction manual attached to WST-8 Kit (KISHIDA CHEMICAL Co., Ltd.).

Take `O=C1CCC(N2C(=O)c3ccccc3C2=O)C(=O)N1` (centres unmarked) [Thalidomide, reference compound]: the viability at 10 µM in assay [1] was 96%; in assay [2] it was 81%; in assay [3], 79%; in assay [4], 94%; in assay [5] it was 104%.
